Source: patent US20180237362A1, “NOVEL POLYGODIAL ANALOGS FOR THE TREATMENT OF CANCER AND OTHER PROLIFERATIVE DISEASES” (THE BOARD OF REGENTS OF THE UNIVERSITY OF TAXAS SYSTEM, priority 2015, published 2018)
Like-named read-outs stand apart in the source and are kept apart here.

What was measured:
[1] = tested on: human A549 non-small cell lung cancer (NSCLC); assay: MTT antiproliferative assay, A549; format: cell-based; details: for GI50: 72 h treatment, MTT assay, sextuplicates, read-out: GI50 in vitro values, A549
Method: (§1) Human mammary carcinoma MCF-7 (ATCC HTB22) cells were cultured in RPMI supplemented with 10% FBS. The U87 cells (ATCC HTB-14) were cultured in DMEM culture medium, while the A549 cells (DSMZ ACC107) were cultured in RPMI culture medium supplemented with 10% heat-inactivated FBS. The GBM Hs683 (ATCC HTB-138) cells were cultivated in DMEM supplemented with 10% FBS. The human uterine sarcoma MES-SA (ATCC CRL1966) and MES-SA/D×5 cells were cultured in RPMI-1640 medium supplemented with 10% FBS with MES SA/D×5 maintained in the presence of 500 nM Doxorubicin (Sigma). SKMEL-28 cells (ATCC HTB72) and U373 GBM cells (ECACC 08061901) were cultured in RPMI culture medium supplemented with 10% heat-inactivated FBS. Cell culture media were supplemented with 4 mM glutamine (Lonza code BE17-605E), 100 μg/mL gentamicin (Lonza code 17-5182), and penicillin-streptomycin (200 units/ml and 200 μg/ml) (Lonza code 17-602E). The MDA-MB-231 (ATCC HTB-26) epithelial mammary adenocarcinoma cells were cultured in Eagle's minimum essential medium (EMEM; Invitrogen) containing 5% fetal calf serum (FCS, Cambrex), 2 mM L-glutamine (Invitrogen), 0.06% HEPES (Invitrogen) and penicillin (50 IU/ml)/streptomycin (50 µg/ml; Invitrogen) at 37° C. in a humidified atmosphere of 5% CO2 in air. Transformed mouse NPCs were cultured in suspension under neurosphere conditions at 37° C. in a humidified atmosphere of […] and 5% CO2 in DMEM F12 (Invitrogen 11320-074) supplemented with 1×B27 supplement (Invitrogen 17504-044), 5% penicillin-streptomycin (Biochrom 10378-017), 10 ng/ml EGF (R&D systems 236-EG), 10 ng/ml FGF (PeproTech 100-18B).
(§2) Antiproliferative properties of the synthesized compounds were evaluated by the MTT assay. All compounds were dissolved in DMSO at a concentration of either 100 μM or 50 μM prior to cell treatment. The cells were trypsinized and seeded at various cell concentrations depending on the cell type. The cells were grown for 24 h to 72 h, treated with compounds at concentrations ranging from 0.001 to 100 μM and incubated for 48 or 72 h in 100 or 200 μL media depending on the cell line used. The number of experiments and replicates varied depending on the cell line. Cells treated with 0.1% DMSO were used as a negative control; 1 μM PAO was used as a positive control.
(§3) The synthesized C12-Wittig derivatives were evaluated for antiproliferative activities in a panel of cancer cell lines that included apoptosis-resistant human U373 glioblastoma (GBM) (Lefranc et al., 2013), human A549 non-small cell lung cancer (NSCLC) and human SKMEL-28 melanoma (Mathieu et al., 2009) as well as apoptosis-sensitive human Hs683 anaplastic oligodendroglioma (Lefranc et al., 2013) and human MCF-7 breast cancer (Frolova et al., 2013).

human SKMEL-28 melanoma = assay: MTT antiproliferative assay, SKMEL-28; format: cell-based; details: sextuplicates, read-out: GI50 in vitro values, SKMEL-28
Method: as §1, §2, §3

[2] = tested on: human Hs683 anaplastic oligodendroglioma; assay: MTT antiproliferative assay, Hs683; format: cell-based; details: sextuplicates, read-out: GI50 in vitro values, Hs683
Method: as §1, §2, §3

[3] = tested on: MDA-MB-231 breast cancer cells expressing TRPV1; assay: Intracellular Ca2+ measurements, MDA-MB-231; format: cell-based, human; details: 1 at 80 μM, 5 at 20 μM; Fura-2
Method: Human mammary carcinoma MCF-7 (ATCC HTB22) cells were cultured in RPMI supplemented with 10% FBS. The U87 cells (ATCC HTB-14) were cultured in DMEM culture medium, while the A549 cells (DSMZ ACC107) were cultured in RPMI culture medium supplemented with 10% heat-inactivated FBS. The GBM Hs683 (ATCC HTB-138) cells were cultivated in DMEM supplemented with 10% FBS. The human uterine sarcoma MES-SA (ATCC CRL1966) and MES-SA/D×5 cells were cultured in RPMI-1640 medium supplemented with 10% FBS with MES SA/D×5 maintained in the presence of 500 nM Doxorubicin (Sigma). SKMEL-28 cells (ATCC HTB72) and U373 GBM cells (ECACC 08061901) were cultured in RPMI culture medium supplemented with 10% heat-inactivated FBS. Cell culture media were supplemented with 4 mM glutamine (Lonza code BE17-605E), 100 μg/mL gentamicin (Lonza code 17-5182), and penicillin-streptomycin (200 units/ml and 200 μg/ml) (Lonza code 17-602E). […]
Intracellular Ca^2+ measurements. Cells were grown on glass coverslips for fluorescence imaging. The cytosolic calcium was measured using Fura-2-loaded cells. […] Fluorescence was excited at 350 and 380 nm alternately using a monochromator (Polychrome IV; TILL Photonics, Planegg, Germany), and captured by a Cool SNAP HQ camera (Princeton Instruments, France) after filtration through a long-pass filter (510 nm). […]

HeLa-derived tumors = assay: Mouse xenograft model, HeLa; format: in vivo, athymic nude mice; details: for anti-tumor effect, HeLa-derived tumors: 40 μg/100 μl intra-tumor injection every other day for 18 days, polygodial significantly more efficacious than P3; for adverse effects, HeLa xenograft mice: intra-tumor injection every other day for 18 days
Method: Six-week old female athymic nude mice were used in laminar air-flow cabinet in pathogen-free conditions. They were acclimated for one week prior to the start of the study and kept at controlled temperature and humidity, with food and water. Mice were injected subcutaneously in the flank with 2×10^6 Cal27 cells or HeLa cells in 0.1 mL of sterile PBS. When the tumors reached 100 mm^3 (Cal27) and 150 mm^3 (HeLa), the mice were stratified into 4 groups, […], polygodial, P10, P3 and P27 at the concentrations noted in the figure legends.

[4] = target: T1, CHO cells that overexpress TRPV1 (CHO-TRPV1) (Homo sapiens, UniProt Q8NER1); assay: Calcium imaging, CHO-TRPV1; format: cell-based; details: for TRPV1 activation (calcium influx), CHO-TRPV1: polygodial 80 μM, P10 4 μM, P3 50 μM
T1 construct: expressed in transfected cells; host or cells: CHO cells
T1 sequence (Q8NER1 whole entry): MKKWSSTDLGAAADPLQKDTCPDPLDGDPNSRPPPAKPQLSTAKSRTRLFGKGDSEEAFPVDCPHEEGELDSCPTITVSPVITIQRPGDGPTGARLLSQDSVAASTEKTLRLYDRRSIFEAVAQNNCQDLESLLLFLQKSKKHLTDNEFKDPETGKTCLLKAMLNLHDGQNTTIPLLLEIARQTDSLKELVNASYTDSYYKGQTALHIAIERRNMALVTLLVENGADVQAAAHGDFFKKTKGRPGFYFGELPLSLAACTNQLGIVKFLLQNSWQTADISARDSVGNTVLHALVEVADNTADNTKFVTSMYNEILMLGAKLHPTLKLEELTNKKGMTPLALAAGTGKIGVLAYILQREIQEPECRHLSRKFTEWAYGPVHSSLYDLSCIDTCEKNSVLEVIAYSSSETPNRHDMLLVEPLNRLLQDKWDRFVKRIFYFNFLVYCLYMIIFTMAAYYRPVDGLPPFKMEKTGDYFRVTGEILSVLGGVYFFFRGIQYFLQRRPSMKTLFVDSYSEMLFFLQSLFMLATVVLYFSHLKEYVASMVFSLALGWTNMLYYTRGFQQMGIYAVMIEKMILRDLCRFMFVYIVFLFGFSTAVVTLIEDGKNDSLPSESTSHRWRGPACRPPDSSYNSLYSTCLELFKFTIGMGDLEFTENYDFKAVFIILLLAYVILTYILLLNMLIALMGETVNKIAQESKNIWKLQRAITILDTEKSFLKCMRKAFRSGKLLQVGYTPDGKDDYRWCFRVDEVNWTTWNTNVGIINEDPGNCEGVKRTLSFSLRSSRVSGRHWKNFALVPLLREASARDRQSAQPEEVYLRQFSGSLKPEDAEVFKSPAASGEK
Method: CHO cells that overexpress TRPV1 (CHO-TRPV1) were treated with polygodial (80 μM), P10 ([…]), or P3 (50 μM) and calcium influx was measured. Cells were also pre-treated with the TRPV1 antagonist capsazepine (CPZ; 10 μM) to determine if calcium influx via TRPV1 was inhibited. 3 μM ionomycin was used as a positive control. Fluo-4 Direct Calcium Assay Kit and Sweptfield confocal with Nikon Ti were used to visualize calcium influx and the images were analyzed using ImageJ software.

| GI50 ([1]; Homo sapiens, A549) [µM] | GI50 (human SKMEL-28 melanoma; Homo sapiens, SK-MEL-28, 72 h treatment) [µM] | GI50 ([2]; Homo sapiens, Hs 683, 72 h treatment) [µM] | reversal of calcium influx by capsazepine, CHO-TRPV1 ([4]; CPZ 10 μM pre-treatment) | SMILES | [Ca2+]i response [3] | anti-tumor effect, HeLa-derived tumors (HeLa-derived tumors) | adverse effects, HeLa xenograft mice (HeLa-derived tumors) | TRPV1 activation (calcium influx), CHO-TRPV1 [4] | GI50 [1] [µM] | effect on proliferation/viability of all cells, A549 ([1]; apoptosis-resistant A549 NSCLC, concentrations up to 100 μM) | GI50 (human SKMEL-28 melanoma; 72 h treatment) [µM] | GI50 ([2]; 72 h treatment) [µM] |
| --- | --- | --- | --- | --- | --- | --- | --- | --- | --- | --- | --- | --- |
| 90 | 65 | 95 | reversible by CPZ pre-treatment | CC1(C)CCC[C@]2(C)[C@@H](C=O)C(C=O)=CC[C@@H]12 [Compound 1, Polygodial] | transient and synchronous [Ca^2+]i increase | significant anti-tumor effects | marked inflammatory response | activates TRPV1 | – | – | – | – |
| – | – | – | – | COC(=O)/C=C/C1=CC[C@H]2C(C)(C)CCC[C@]2(C)[C@H]1C=O [Compound 5] | sustained and asynchronous [Ca^2+] increases | significant anti-tumor effects | No observable adverse effects | do not | 21 | growth inhibitory properties against most of the cells | 27 | 24 |
